Experimental data taken from patent publication US10722518B2, “Oxazine derivative for use in the treatment or prevention of cerebral amyloid angiopathy” (Novartis AG, priority 2016, dated 2020).

System: APP23 mice
Assay: 13-week oral safety study in aged APP23 mice: MRI of microhaemorrhagic lesions
Type: in vivo, mouse
Details: aged female APP23 mice
Method: The APP23 mouse strain was chosen because of the existence of microhaemorrhages in aged animals. Females were chosen because of having a much higher overall Aβ load, a higher Aβ40/Aβ42 ratio and thus more pronounced microhaemorrhages.
β1 antibody administration: intraperitoneal, once weekly. Dosage volume: 0.15 mL/mouse (maximum 10 mL/kg)
Animal species and strain: Mouse; transgenic APP23 (B6.D2-Tg(Thy1App)23/1Sdz)
Sex: Females (females have a much higher overall Aβ load, a higher Aβ40/Aβ42 ratio and thus more pronounced microhaemorrhages)
Age: Approximately 17-18 months (at start of dosing)
For MRI investigations, mice were anesthetized with 1.5% isoflurane (Abbott, Cham, Switzerland) in a mixture of oxygen/N2O (2:1) administered via a face mask and placed in a Plexiglas cradle. […] Respiration was monitored throughout the acquisitions. […]
Acquisition and analysis of the MRI data were performed by a blinded investigator. Sites in the cortex and thalamus presenting signal attenuation with a minimum diameter of 70 μm (lesions) were analyzed throughout the whole brain. To ensure that the same site (lesion) was not counted multiple times, its presence was carefully controlled over several consecutive slices from the 3D data set. The total volume of the lesions was assessed using ImgTool, an IDL (Interactive Data Language Research Systems, Boulder, Colo., USA) based software. […]

C[C@@]1(c2nc(NC(=O)c3ncc(C(F)(F)F)cc3Cl)ccc2F)CO[C@@](C)(C(F)(F)F)C(N)=N1 [Compound 1, N-(6-((3R,6R)-5-amino-3,6-dimethyl-6-(trifluoromethyl)-3,6-dihydro-2H-1,4-oxazin-3-yl)-5-fluoropyridin-2-yl)-3-chloro-5-(trifluoromethyl)picolinamide]
total lesion volume detected by MRI (1, 2 and 3 months of treatment): did not exacerbate lesion volumes
lesion numbers (mean±SEM) by MRI (month 3): 11.5±2.0
